Reference: patent US9073918B2, “Pyrazolo[4,3-b]pyridine-7-amine inhibitors of ALK5” (Takeda Pharmaceutical Company Limited, priority 2010, dated 2015)
pIC50: −log10 of the molar value.

What was measured:
[1] = biological target: T1, TGF-β R1 ALK5 (Homo sapiens, UniProt P36897); assay: In vitro inhibition of ALK5 (LanthaScreen activity assay, TR-FRET); assay type: biochemical
T1 construct: purchased Invitrogen PV5837
T1 sequence (P36897 34-503): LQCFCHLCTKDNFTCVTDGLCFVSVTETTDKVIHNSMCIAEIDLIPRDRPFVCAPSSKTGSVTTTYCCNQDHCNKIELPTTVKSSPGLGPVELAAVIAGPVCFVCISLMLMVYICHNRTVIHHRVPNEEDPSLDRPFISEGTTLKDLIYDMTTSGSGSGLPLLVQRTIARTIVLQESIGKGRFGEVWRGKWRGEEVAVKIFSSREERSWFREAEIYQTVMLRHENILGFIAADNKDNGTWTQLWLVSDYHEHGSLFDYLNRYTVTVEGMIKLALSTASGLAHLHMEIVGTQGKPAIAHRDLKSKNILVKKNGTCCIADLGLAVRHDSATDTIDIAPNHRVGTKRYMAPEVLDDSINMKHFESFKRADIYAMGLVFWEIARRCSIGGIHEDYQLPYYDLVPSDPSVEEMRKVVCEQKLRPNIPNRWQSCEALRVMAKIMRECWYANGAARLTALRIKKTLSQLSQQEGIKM
Method: Test compounds were screened for TGF-β R1 ALK5 inhibition by use of a LanthaScreen™ activity assay (PV5837 Invitrogen, Invitrogen Corp. Madison, Wis.).
In brief, the assay procedure was as follows:
Solutions of test compounds were prepared in DMSO and diluted two-fold serially.
Assays were incubated for 90 minutes at room temperature and then quenched by the addition of 60 mM EDTA and 8 nM Terbium labeled anti-pSMAD3 Antibody (M4337 from Invitrogen) giving a final concentration of 15 mM EDTA and 2 nM Terbium labeled anti-pSMAD3 Antibody. Phosphorylated peptide product was quantified by measuring an increase in TR-FRET on a BMG LABTECH PHERA star plus. Response is defined as the ratio of Channel A/Channel B. The response of a blank (uninhibited) using vehicle alone is also determined. Enzyme activity was defined as the response of uninhibited enzyme activity minus the response of assays containing no enzyme. The percent inhibition of ALK5 at a given compound concentration is defined as: 100%×[1−(response compound/response blank)]
where response compound is defined as the enzyme activity in the presence of test compound and response blank is defined as the uninhibited enzyme activity. The pIC50 value (negative log of the molar concentration of the compound that produces 50% inhibition) of a test compound is calculated by non-linear least squares curve fitting of the equation: Percent Inhibition=100%/(1+(10−pIC50/10 log [I])).
Where inhibition was measured in multiple experiments the value in Table 1 is an average. N.T. means not tested.

[2] = biological target: T2, cellular TGF-β R1 ALK5 (Homo sapiens, UniProt P36897); assay: Cellular inhibition of ALK5 (CellSensor SBE-bla HEK 293T beta-lactamase reporter); assay type: cell-based; settings: cellular inhibition of ALK5, SBE-bla HEK 293T cells, TGFb-1 stimulated 5 hours; average where measured in multiple experiments
T2 construct: host or cells: CellSensor SBE-bla HEK 293T
T2 sequence (P36897 34-503): T1 sequence (P36897 34-503)
Text: Test compounds were screened for cellular TGF-β R1 ALK5 inhibition by use of a CellSensor® SBE-bla HEK 293T (K1550, Invitrogen Corp. Madison, Wis.) cell line. The CellSensor® SBE-bla HEK 293T cell line contains a beta-lactamase reporter gene under control of the SBE response element stably integrated into HEK 293T cells. The SBE response element is a DNA region that binds activated SMADs which results from the binding of TGF-β to, and subsequent activation of ALK5.
The assay procedure was as follows:
CellSensor® SBE-bla HEK 293T cell line were plated at 12,000 cells/well in 40 ul DMEM plus 5 ug/ml blasticidin into 384-well, black-wall, clear-bottom assay plate and incubated overnight.
The following day 5 uL of 10×, 2.5-fold serially diluted test compounds in DMSO were added into cells to a final compound concentration of 1× and DMSO concentration of 0.5%. Assay was incubated for 1 hour at 37° C., 5% CO2, 5 uL of 100 ng/mL TGFb-1 was then added to activate ALK5 and incubated for 5 hours at 37° C., 5% CO2, 10 uL of detector, LiveBLAzer FRET B/G substrate (CCF4-AM, Invitrogen Corp. Madison, Wis.) was added to cells and incubated for 2 hours at RT. Assay was measured using Spectramax, a bottom-read fluorescence plate reader, at excitation setting of 405 nm and emission settings of 460 nm and 530 nm.
Response is defined as the ratio of background corrected 460 nm emission values/background corrected 530 nm emission values. Cellular activity was defined as percent inhibition of uninhibited ALK5 activity (wells treated with DMSO+TGF-β). The percent inhibition of cellular ALK5 at a given compound concentration is defined as: 100%×[1−(response compound+TGF-β/response DMSO+TGF-β)] where response compound+TGF-β is defined as the activity in the presence of test compound and response DMSO+TGF-β is defined as the uninhibited cellular ALK5 activity. The pIC50 value (negative log of the molar concentration of the compound that produces 50% inhibition) of a test compound is calculated by non-linear least squares curve fitting. pIC50 values, the negative of the log of the IC50, are calculated by non-linear curve fitting of the compound concentrations and percent of inhibition to the standard pIC50 equation.
Where inhibition was measured in multiple experiments the value in Table 2 is an average. N.T. means not tested.

CCCn1ncc2nccc(Nc3ccnc(-c4cc(Cl)ccc4F)c3)c21 [Example 18, N-(2-(5-chloro-2-fluorophenyl)pyridin-4-yl)-1-propyl-1H-pyrazolo[4,3-b]pyridin-7-amine]
pIC50 [1]: 7.30
pIC50 [2]: 6.20

CCCn1cc2nccc(Nc3ccnc(-c4cc(Cl)ccc4F)c3)c2n1 [Example 19, N-(2-(5-chloro-2-fluorophenyl)pyridin-4-yl)-2-propyl-2H-pyrazolo[4,3-b]pyridin-7-amine]
pIC50 [1]: 7.30
pIC50 [2]: 6.40

CC(C)n1ncc2nccc(Nc3ccnc(-c4cc(Cl)ccc4F)c3)c21 [Example 20, N-(2-(5-chloro-2-fluorophenyl)pyridin-4-yl)-1-isopropyl-1H-pyrazolo[4,3-b]pyridin-7-amine]
pIC50 [1]: 7.40
pIC50 [2]: 7.00

Fc1ccc(Cl)cc1-c1cc(Nc2ccnc3cnn(C4CCOCC4)c23)ccn1 [Example 21, N-(2-(5-chloro-2-fluorophenyl)pyridin-4-yl)-1-(tetrahydro-2H-pyran-4-yl)-1H-pyrazolo[4,3-b]pyridin-7-amine]
pIC50 [1]: 7.00
pIC50 [2]: 6.10

Fc1ccc(Cl)cc1-c1cc(Nc2ccnc3cn(CC4CCNCC4)nc23)ccn1 [Example 27, N-(2-(5-chloro-2-fluorophenyl)pyridin-4-yl)-2-(piperidin-4-ylmethyl)-2H-pyrazolo[4,3-b]pyridin-7-amine]
pIC50 [1]: 7.20
pIC50 [2]: 6.00

CCNC(=O)N1CCC(Cn2cc3nccc(Nc4ccnc(-c5cc(Cl)ccc5F)c4)c3n2)CC1 [Example 28, 4-((7-(2-(5-chloro-2-fluorophenyl)pyridin-4-ylamino)-2H-pyrazolo[4,3-b]pyridin-2-yl)methyl)-N-ethylpiperidine-1-carboxamide]
pIC50 [1]: 5.60
pIC50 [2]: 5.60

CCNC(=O)n1ncc2nccc(Nc3ccnc(-c4cc(Cl)ccc4F)c3)c21 [Example 29, 7-(2-(5-chloro-2-fluorophenyl)pyridin-4-ylamino)-N-ethyl-1H-pyrazolo[4,3-b]pyridine-1-carboxamide]
pIC50 [1]: 7.00
pIC50 [2]: 7.00

CNC(=O)Cn1ncc2nccc(Nc3ccnc(-c4cc(Cl)ccc4F)c3)c21 [Example 31, 2-(7-(2-(5-chloro-2-fluorophenyl)pyridin-4-ylamino)-1H-pyrazolo[4,3-b]pyridin-1-yl)-N-methylacetamide]
pIC50 [1]: 6.70
pIC50 [2]: 6.70

CNC(=O)n1ncc2nccc(Nc3ccnc(-c4cc(Cl)ccc4F)c3)c21 [Example 32, 7-(2-(5-chloro-2-fluorophenyl)pyridin-4-ylamino)-N-methyl-1H-pyrazolo[4,3-b]pyridine-1-carboxamide]
pIC50 [1]: 7.30
pIC50 [2]: 7.30

COCCCn1ncc2nccc(Nc3ccnc(-c4cc(Cl)ccc4F)c3)c21 [Example 33, N-(2-(5-chloro-2-fluorophenyl)pyridin-4-yl)-1-(3-methoxypropyl)-1H-pyrazolo[4,3-b]pyridin-7-amine]
pIC50 [1]: 6.70
pIC50 [2]: 6.70

COCCCn1cc2nccc(Nc3ccnc(-c4cc(Cl)ccc4F)c3)c2n1 [Example 34, N-(2-(5-chloro-2-fluorophenyl)pyridin-4-yl)-2-(3-methoxypropyl)-2H-pyrazolo[4,3-b]pyridin-7-amine]
pIC50 [1]: 6.40
pIC50 [2]: 6.40

Fc1ccc(Cl)cc1-c1cc(Nc2ccnc3cnn(CC4CC4)c23)ccn1 [Example 36, N-(2-(5-chloro-2-fluorophenyl)pyridin-4-yl)-1-(cyclopropylmethyl)-1H-pyrazolo[4,3-b]pyridin-7-amine]
pIC50 [1]: 6.20
pIC50 [2]: 6.20

Fc1ccc(Cl)cc1-c1cc(Nc2ccnc3cn(CC4CC4)nc23)ccn1 [Example 37, N-(2-(5-chloro-2-fluorophenyl)pyridin-4-yl)-2-(cyclopropylmethyl)-2H-pyrazolo[4,3-b]pyridin-7-amine]
pIC50 [1]: 7.20
pIC50 [2]: 6.40

CN(C)C(=O)n1ncc2nccc(Nc3ccnc(-c4cc(Cl)ccc4F)c3)c21 [Example 39, 7-(2-(5-chloro-2-fluorophenyl)pyridin-4-ylamino)-N,N-dimethyl-1H-pyrazolo[4,3-b]pyridine-1-carboxamide]
pIC50 [1]: 7.00
pIC50 [2]: 6.50

NC(=O)Cn1cc2nccc(Nc3ccnc(-c4cc(Cl)ccc4F)c3)c2n1 [Example 43, 2-(7-(2-(5-chloro-2-fluorophenyl)pyridin-4-ylamino)-2H-pyrazolo[4,3-b]pyridin-2-yl)acetamide]
pIC50 [1]: 8.10
pIC50 [2]: 7.00

OC[C@H](O)Cn1cc2nccc(Nc3ccnc(-c4cc(Cl)ccc4F)c3)c2n1 [Example 46, (R)-3-(7-(2-(5-chloro-2-fluorophenyl)pyridin-4-ylamino)-2H-pyrazolo[4,3-b]pyridin-2-yl)propane-1,2-diol]
pIC50 [1]: 7.20
pIC50 [2]: 6.50

Cn1cc2nccc(Nc3ccnc(-c4cccc(Cl)c4)c3)c2n1 [Example 48, N-(2-(3-chlorophenyl)pyridin-4-yl)-2-methyl-2H-pyrazolo[4,3-b]pyridin-7-amine]
pIC50 [1]: 6.70
pIC50 [2]: 6.70

Cc1cnc(-c2cc(Cl)ccc2F)cc1Nc1ccnc2cn[nH]c12 [Example 49, N-(2-(5-chloro-2-fluorophenyl)-5-methylpyridin-4-yl)-1H-pyrazolo[4,3-b]pyridin-7-amine]
pIC50 [1]: 7.50
pIC50 [2]: 7.50

Cc1cnc(-c2cc(Cl)ccc2F)cc1Nc1ccnc2cn(CC(N)=O)nc12 [Example 50, 2-(7-(2-(5-chloro-2-fluorophenyl)-5-methylpyridin-4-ylamino)-2H-pyrazolo[4,3-b]pyridin-2-yl)acetamide]
pIC50 [1]: 7.80
pIC50 [2]: 7.90

Cc1cnc(-c2cc(Cl)ccc2F)cc1Nc1ccnc2cnn(CC(N)=O)c12 [Example 51, 2-(7-(2-(5-chloro-2-fluorophenyl)-5-methylpyridin-4-ylamino)-1H-pyrazolo[4,3-b]pyridin-1-yl)acetamide]
pIC50 [1]: 7.90
pIC50 [2]: 7.70

CNC(=O)n1ncc2nccc(Nc3cc(-c4cc(Cl)ccc4F)ncc3C)c21 [Example 52, 7-(2-(5-chloro-2-fluorophenyl)-5-methylpyridin-4-ylamino)-N-methyl-1H-pyrazolo[4,3-b]pyridine-1-carboxamide]
pIC50 [1]: 7.50
pIC50 [2]: 7.50

CCNC(=O)n1ncc2nccc(Nc3cc(-c4cc(Cl)ccc4F)ncc3C)c21 [Example 53, 7-(2-(5-chloro-2-fluorophenyl)-5-methylpyridin-4-ylamino)-N-ethyl-1H-pyrazolo[4,3-b]pyridine-1-carboxamide]
pIC50 [1]: 7.50
pIC50 [2]: 7.30

Cc1cnc(-c2cc(Cl)ccc2F)cc1Nc1ccnc2cnn(C(=O)NC(C)C)c12 [Example 54, 7-(2-(5-chloro-2-fluorophenyl)-5-methylpyridin-4-ylamino)-N-isopropyl-1H-pyrazolo[4,3-b]pyridine-1-carboxamide]
pIC50 [1]: 7.20
pIC50 [2]: 7.00
